Laboratory results reported in patent US5973112A, “Collagen mimics” (Wisconsin Alumni Research Foundation, priority 1997, dated 1999).

How the values were obtained:
[1] = trans:cis ratio of the proline peptide bond in N-acetyl proline methylester derivatives; type: physicochemical; conditions: for ΔΔG: relative to AcProOMe
Method: To begin to test this hypothesis, it was determined how electron-withdrawing groups affect the trans:cis ratio. N-Acetyl proline methylester (AcProOMe), N-acetyl-4(R)-hydroxyproline methylester (AcHypOMe), and N-acetyl-4(R)-fluoroproline (AcFlpOMe) were synthesized and their preferences for the trans state were determined, Eberhardt et al., J. Am. Chem. Soc., 118:12261-12266 (1996).

[2] = crystalline structure, Cγ-Cδ bond length; type: physicochemical
From the text: The origin of this effect on trans:cis ratio was explored by determining the crystalline structures of AcProOMe, AcHypOMe, and AcFlpOMe, Panasik et al., Int. J. Pept. Protein Res., 44:262-269. […] This order is consistent with an inductive effect in which the substituent in the 4-position withdraws electron density away from the Cγ-Cδ bond. A shorter Cγ-Cδ bond length diminishes steric clashes between atoms in the trans isomer, but has no effect on the cis isomer. The inductive effect from the hydroxyl group of Hyp residues is consistent with the effect of Hyp on collagen stability. Other manifestations of the inductive effects of Hyp and Flp residues were also found by Panasik et al. and by Eberhardt et al. Similar inductive effects should be manifested in 4(S)-fluoroproline and in 4,4-difluoroproline.

trans:cis ratio [1]	ΔΔG [1]	Cy-Cδ bond length [2]	SMILES
5.8	0.18 kcal/mol	1.510 Å	COC(=O)[C@@H]1C[C@@H](O)CN1C(C)=O [AcHypOMe, N-acetyl-4(R)-hydroxyproline methylester]
4.3	0 kcal/mol	1.523 Å	COC(=O)[C@@H]1CCCN1C(C)=O [AcProOMe, N-Acetyl proline methylester]
